Measured values from article PMC11267380, “USP25 Elevates SHLD2‐Mediated DNA Double‐Strand Break Repair and Regulates Chemoresponse in Cancer” (Advanced Science, 2024).

Legend:
Assay type in all cases: cell-based
RKO and SW620 cells = experiment: CCK8 survival assay, USP25 knockdown USP25-high colon cancer cells; details: RKO: cisplatin (0, 0.5, 1, 3 µM), 5-Fu (0, 0.1, 0.5, 1, 3 µM), SW620: 5-Fu (0, 0.1, 0.5, 1, 3 µM), 72 h
Experimental: For long-term proliferation, cells were seeded in triplicate in each well of 96-well plates at a density of 1000 cells per well. After 24 h of culture, the cells were treated with the indicated doses of regents or peptides and incubated at 37 °C for 72 h. Subsequently, the medium was changed to a fresh medium containing cell counting kit-8 solution (Dojindo, CK04), and the cells were placed in the incubator for an additional 1-2 h. […] a) The mRNA expression levels of TRIM25, HECTD3, NEDD4L and WWP2 in human normal colon tissue samples (n=41) and colorectal adenocarcinoma tissue samples (n=286 COAD patients) from the Ualcan database were analyzed. b) The protein expression levels of USP25 were measured in HEK293T cells that stably expressed TRIM25 shRNA. c) NHEJ repair capacity of control or TRIM25 knockdown cells were subjected using a reporter assay. d-g) Immunoblot of USP25 in the RKO cells stably expressing control and USP25 shRNA. […] Statistical analysis was performed using t-test (a) or one-way ANOVA followed by a Turkey's multiple comparison test (c) or two-way ANOVA followed by a Turkey's multiple comparison test ([…]) .

SW480 cells = experiment: CCK8 survival assay, TRIM25 knockdown SW480 cells; details: ctrl vs USP25-depleted SW480, 5-Fu (0, 0.1, 0.5, 1, 3 µM), 72 h
Source text: (§1) Figure 6 TRIM25 ubiquitinates and inactivates USP25. a) The mRNA expression levels of USP25 in human normal colon tissue samples (n = 41) and colorectal adenocarcinoma tissue samples (n = 286 COAD patients) from the Ualcan database. b) The mRNA expression level of USP25 in human colon cell lines and colon carcinoma cell lines through qPCR. c) The protein expression level of USP25 in human colon cell lines and colon carcinoma cell lines through western blot. d) Tissue microarray with representative IHC images showing USP25 protein expression in COAD tumors and adjacent tissues. […] Cell lysates were subjected to HA resin, and the immunoprecipitants were subsequently blotted using the indicated antibodies. f) The protein expression levels of USP25 were evaluated in HEK293T cells transfected with MYC‐TRIM25 or Flag‐HECTD3. g) The effect of cycloheximide (CHX) treatment on USP25 expression levels was analyzed in HEK293T cells transfected with TRIM25 for an indicated duration of time. h) In vivo ubiquitination assays were performed in control and TRIM25 knockdown cells, transfected with indicated plasmids, and treated with MG132 for 4 h before harvesting. […]
(§2) For long‐term proliferation, cells were seeded in triplicate in each well of 96‐well plates at a density of 1000 cells per well. […] The absorbance was measured at 450 nm using the SpectraMax M5 reader (Molecular Devices).

SW620 cells = experiment: CCK8 survival assay, SW620 cells overexpressing TRIM25; details: SW620 ctrl, 5-Fu (0, 0.1, 0.5, 1, 3 µM), 72 h
Source text: as §1, §2

RKO cells = experiment: CCK8 survival assay, control, USP25 knockdown and SHLD2-depleted RKO cells; details: 5-Fu (0, 0.1, 0.5, 1, 3 µM) or cisplatin (0, 0.1, 0.5, 1, 2, 5 µM)
Experimental: For long‐term proliferation, cells were seeded in triplicate in each well of 96‐well plates at a density of 1000 cells per well. After 24 h of culture, the cells were treated with the indicated doses of regents or peptides and incubated at 37 °C for 72 h. Subsequently, the medium was changed to a fresh medium containing cell counting kit‐8 solution (Dojindo, CK04), and the cells were placed in the incubator for an additional 1–2 h. The absorbance was measured at 450 nm using the SpectraMax M5 reader (Molecular Devices).
a) HEK293T cells stably expressing control or USP25 shRNA were untreated and treaded with etopside at the indicated time point. Cells were lysed and lysates was performed with the indicated antibodies. b-c) Representative foci images and quantification of RPA32 (b) and RAD51 (c) were obtained in U2OS cells stably expressing control or USP25 shRNA with or without IR treatment (2Gy). n>80 in each group. d) USP25 was knocked down in ER-AsiSI U2OS cells by shRNA, and cell lysates were analyzed using the indicated antibodies. e) Schematic representation of Taqman qPCR primer design for measurement of DSB% at AsiSI sites located on chromosome1(Chr.1). The primer pairs of DNA resection are across BamHI restriction sites are marked by red arrows. ER-AsiSI U2OS cells stably expressing control and USP25 shRNA were treated with 300 nM 4- hydroxytamoxifen (4-OHT) for 4 h or mock treated and genomic DNA was then extracted and digested with BamHI overnight. The percentages of ssDNA at various distances (364nt, 1754nt and 3564nt) were measured by qPCR. f-h) Control and USP25 knockdown RKO cells transfected short interfering RNAs (siRNA) against SHLD2 were subjected to survival assays for CCK8 assay in response to IR (0, 1,1.5,2,2.5,3Gy), 5-Fu (0, 0.1,0.5,1,3µM) or cisplatin(0, 0.1,0.5,1,2,5µM). Statistical analysis was performed using two-way ANOVA followed by a Turkey’s multiple comparison test (b,c,e,f,g,h) .

SMILES: O=c1[nH]cc(F)c(=O)[nH]1 [5‐Fu, 5‐fluorouracil]
- sensitization by USP25 knockdown, USP25-high cell lines (RKO and SW620 cells): sensitized the cells to IR, cisplatin, and 5‐Fu treatment
- resistance by TRIM25 knockdown (SW480 cells): resistant to 5‐Fu treatment in ctrl cells but not USP25‐depleted SW480 cells
- sensitization by TRIM25 overexpression (SW620 cells): sensitize to 5‐Fu treatment in ctrl SW620 cells
- sensitization by USP25 knockdown (RKO cells; Figure S2f-h): sensitized cells to IR, 5‐Fu, and cisplatin treatment
- sensitization by USP25 knockdown in SHLD2-depleted cells (RKO cells; SHLD2 siRNA): didn't further lead cells to sensitize to these treatments
